In the SangsterLogP compilation:

Key:
[1] = method code SF-HPLC, from DOI: 10.1016/s0223-5234(98)80011-1; conditions: pH 7.4

logD [1]	logP	SMILES
2.8		CCCCc1nc(NC2CC2)nc(N2CCOCC2)n1
2.11		CCCc1nc(NC2CC2)nc(N2CCOCC2)n1
3.14		C1CC(Cc2nc(NC3CC3)nc(N3CCOCC3)n2)C1
3.34		CC(C)Cc1nc(NC2CC2)nc(N2CC3CCC(C2)O3)n1
3.6		C1CCC(Cc2nc(NC3CC3)nc(N3CCOCC3)n2)C1
1.56		O=S1CCN(c2nc(CC3CC3)nc(NC3CC3)n2)CC1
	2.43	CCCc1nc(N)nc(N2CCCCC2)n1
	2.78	CCCCNc1nc(CCC)nc(N2CCOCC2)n1
	2.65	CCCc1nc(NCC(C)C)nc(N2CCOCC2)n1

Second part, the compound before the results:

SMILES	logD [1]	logP
OC1CN(c2nc(CC3CC3)nc(NC3CC3)n2)C1	1.71	
O=S1(=O)CCN(c2nc(CC3CC3)nc(NC3CC3)n2)CC1	1.76	
OCCN(CCO)c1nc(CC2CC2)nc(NC2CC2)n1	1.82	
CCCc1nc(NCN(C)C)nc(N2CCOCC2)n1		1.94
CCCCc1nc(NC2CC2)nc(N(CCO)CCO)n1	1.76	
CCCc1nc(N)nc(N2CCOCC2)n1	1.55	
CCCc1nc(NC(=O)c2ccccc2)nc(N2CCOCC2)n1	2.33	
COC1CN(c2nc(CC3CC3)nc(NC3CC3)n2)C1	2.37	
CCCCc1nc(NC2CC2)nc(N2CC3CCC(C2)O3)n1	3.02	
CCCc1nc(NC)nc(N2CCOCC2)n1		2.02
C1CC1Cc1nc(NC2CC2)nc(N2CC3CCC(C2)O3)n1	3.07	
CCCCc1nc(NC2CC2)nc(N2CC(O)C2)n1	1.61	
CCCc1nc(NCC)nc(N2CCCCC2)n1	3.34	
C=CCCNc1nc(CCC)nc(N2CCOCC2)n1		2.47
CCCc1nc(NCc2ccccc2OC)nc(N2CCOCC2)n1	3.59	
CCCc1nc(NCN2CCCC2=O)nc(N2CCOCC2)n1	1.62	
CCCc1nc(NCCC(=O)N(C)C)nc(N2CCOCC2)n1	0.67	
C1CN(c2nc(CC3CC3)nc(NC3CC3)n2)CCO1	2.33	
CCCc1nc(NCC)nc(N2CCOCC2)n1	2.23	
Cc1nc(NC2CC2)nc(N2CC3CCC(C2)O3)n1	1.84	
